Patent US20170114025A1, “METHODS FOR INHIBITING NECROPTOSIS” (Catalyst Therapeutics Pty Ltd, priority 2014, published 2017)
Read-outs that look alike come from different tables or passages of the source.

Key:
[1] = tested on: U937 human histiocytic leukemia cell line; assay: Screening for inhibition of TSQ induced necroptosis, 96 well plate format; format: cell-based
Method: Screening Compounds for Inhibition of TSQ Induced Necroptosis, 96 Well Plate Format.
U937 human histiocytic leukemia cell line.
35,000 per well in 120 μL of media, counted and plated immediately prior to addition of inhibitor and death stimuli. Final well volume of 150 μL after addition of compounds and death stimuli
HTRPMI (WEHI Media kitchen, contains L-Glutamine and penicillin, streptomycin)—supplemented with 7.4% v/v FCS (Gibco, Precision Plus. Lot #1221437)
48 hours following addition of compounds and death stimuli
DMSO Final Concentration (% v/v): 0.2%
Compounds that are in the Death Stimulation Cocktail and their Final Concentrations: • hTNF-Fc (100 ng/ml)—produced by Silke lab, WEHI • Compound A (500 nM)—Smac mimetic, Tetralogic • Q-VD-OPh (10 μM)—MP Biomedicals
Analysis: • Cells treated with PI staining (1 μg/ml) and analysed by flow cytometry
TNF; S: Smac mimetic; Q: Q-VD-OPh): TSQ treatment ensures that cells specifically undergo necroptotic cell death. TNF activates the TNF receptor, Smac mimetic direct the signal away from proinflammatory signaling and toward the RIP1/RIP3-mediated cell death pathways, and Q-VD-OPh ensures that the apoptotic response is blocked leaving only the programmed necrosis response. The compounds' activity (solution in DMSO) tested in this TSQ-induced assay is evaluated by measuring their ability to block cell death as measured by flow cytometry after PI staining.

[2] = tested on: U937 cells; assay: Counter screen: cell viability without TSQ cocktail (off target effect); format: cell-based
Method: In parallel, all compounds are tested for their ability to affect cell viability. The same U937 cells are treated with compound in DMSO without the TSQ cocktail. This counter screen enables evaluation of off-target effects. In this case gain, cell viability is measured by flow cytometry after PI staining.

[3] = U-937, U937, TSQ, 48 hours, average IC50, unit not given in Table 2 (titrations in nM), read-out: Cell based assay Average
[4] = U-937, U937, TSQ, 48 hours, unit not given in Table 2 (titrations given in nM), read-out: Cell based assay IC50
[5] = U937 without TSQ cocktail, compound at 500 nM
[6] = U937 without TSQ cocktail, compound at 1 uM
[7] = U937 without TSQ cocktail, compound at 5 uM
[8] = U937 without TSQ cocktail, compound at 10 uM

| Compound | IC50 [1, 3] [nM] | IC50 [1, 4] [nM] | Off target effect (% cell death) at 500 nM [2, 5] [%] | Off target effect (% cell death) at 1 uM [2, 6] [%] | Off target effect (% cell death) at 5 uM [2, 7] [%] | Off target effect (% cell death) at 10 uM [2, 8] [%] | IC50 ([1]; U-937, 48 h, read-out: Cell based assay Average) [nM] | IC50 ([1]; U-937, 48 h, read-out: Cell based assay IC50) [nM] | Off target effect (% cell death) at 500 nM ([2]; human, 500 nM) [%] | Off target effect (% cell death) at 1 uM ([2]; human, 1 uM) [%] | Off target effect (% cell death) at 5 uM ([2]; human, 5 uM) [%] | Off target effect (% cell death) at 10 uM ([2]; human, 10 uM) [%] |
| --- | --- | --- | --- | --- | --- | --- | --- | --- | --- | --- | --- | --- |
| CN(c1ccc(NC(=O)Nc2ccc(OC(F)(F)F)cc2)cc1)c1ccnc(Nc2ccccc2S(N)(=O)=O)n1 [Compound 5, 2-(4-(Methyl(4-(3-(4-(trifluoromethoxy)phenyl)ureido)phenyl)amino)pyrimidin-2-ylamino)benzenesulfonamide] | > 10000 | ≥ 10000 |  |  |  |  |  |  |  |  |  |  |
| Cc1ccc(F)c(NC(=O)Nc2ccc(N(C)c3ccnc(Nc4cccc(S(N)(=O)=O)c4)n3)cc2)c1 [Compound 6] | 19.9 | 19 | <20 | 40 | 86 | 89 |  |  |  |  |  |  |
| CN(c1ccc(NC(=O)Nc2ccc(OC(F)(F)F)cc2)cc1)c1ccnc(Nc2cccc(C(N)=O)c2)n1 [Compound 8, 3-((4-(methyl(4-(3-(4-(trifluoromethoxy)phenyl)ureido)phenyl)amino)pyrimidin-2-yl)amino) benzamide] | 89.1 | 85.2 |  |  |  |  |  |  |  |  |  |  |
| CNS(=O)(=O)c1cccc(Nc2nccc(N(C)c3ccc(NC(=O)Nc4ccc(OC(F)(F)F)cc4)cc3)n2)c1 [Compound 9, N-methyl-3-((4-(methyl(4-(3-(4-(trifluoromethoxy)phenyl)ureido)-phenyl)amino)pyrimidin-2-yl)amino) benzenesulfonamide] | 42 | 73.1 | <20 | <20 | 43 | 88 |  |  |  |  |  |  |
| CN(c1ccc(NC(=O)Nc2ccc(OC(F)(F)F)cc2)cc1)c1ccnc(Nc2cccc(S(=O)(=O)N(C)C)c2)n1 [Compound 10, N,N-dimethyl-3-((4-(methyl(4-(3-(4-(trifluoromethoxy)phenyl)ureido)-phenyl)amino)pyrimidin-2-yl)amino)benzenesulfonamide] | 45.6 | 72.4 | <20 | <20 | 38 | 69 |  |  |  |  |  |  |
| NS(=O)(=O)c1cccc(Nc2nccc(Nc3ccc(NC(=O)Nc4ccc(OC(F)(F)F)cc4)cc3)n2)c1 [Compound 11, 3-((4-((4-(3-(4-(trifluoromethoxy)phenyl)ureido)phenyl)amino)pyrimidin-2-yl)amino)benzenesulfonamide] | 359 | 359 | <20 | <20 | <20 | 20 |  |  |  |  |  |  |
| CN(C(=O)Nc1ccc(OC(F)(F)F)cc1)c1ccc(N(C)c2ccnc(Nc3cccc(S(N)(=O)=O)c3)n2)cc1 [Compound 12, 3-((4-(methyl(4-(1-methyl-3-(4-(trifluoromethoxy)phenyl)ureido)phenyl)amino)pyrimidin-2-yl)amino) benzene sulfonamide] |  | 327 | 36 | 41 | 36 | 56 |  |  |  |  |  |  |
| CN(c1ccc(NC(=O)Nc2ccc(OC(F)(F)F)cc2)cc1)c1ccnc(Nc2cccc(CS(N)(=O)=O)c2)n1 [Compound 13, (3-((4-(Methyl(4-(3-(4-(trifluoromethoxy)phenyl)ureido)phenyl)amino)pyrimidin-2-yl)amino)phenyl)methanesulfonamide] | 149 | 167 | 24 | 20 | 14 | 84 |  |  |  |  |  |  |
| CN(c1cccc(NC(=O)Nc2ccc(OC(F)(F)F)cc2)c1)c1ccnc(Nc2cccc(S(N)(=O)=O)c2)n1 [Compound 14, 3-((4-(methyl(3-(3-(4-(trifluoromethoxy)phenyl)ureido)phenyl)amino)pyrimidin-2-yl)amino) benzenesulfonamide] |  |  | <20 | <20 | <20 | 70 | 342 | 443 |  |  |  |  |
| CN(c1ccc(NC(=O)Nc2ccc(OC(F)(F)F)cc2)cc1)c1ccnc(Nc2cccc(S(N)(=O)=O)c2)c1 [Compound 15, 3-((4-(methyl(4-(3-(4-(trifluoromethoxy)phenyl)ureido)phenyl)amino)pyridin-2-yl)amino) benzenesulfonamide] | 304 | 328 | <20 | <20 | <20 | 43 |  |  |  |  |  |  |
| CN(c1ccc(NC(=O)Cc2ccc(OC(F)(F)F)cc2)cc1)c1ccnc(Nc2cccc(S(N)(=O)=O)c2)n1 [Compound 16, N-(4-(methyl(2-((3-sulfamoylphenyl)amino)pyrimidin-4-yl)amino)phenyl)-2-(4-(trifluoro-methoxy)phenyl)acetamide] | 87.3 | 97.5 | <20 | <20 | <20 | 30 |  |  |  |  |  |  |
| CN(c1ccc(CC(=O)Nc2ccc(OC(F)(F)F)cc2)cc1)c1ccnc(Nc2cccc(S(N)(=O)=O)c2)n1 [Compound 17, 2-(4-(methyl(2-((3-sulfamoylphenyl)amino)pyrimidin-4-yl)amino)phenyl)-N-(4-(trifluoromethoxy)phenyl)acetamide] | 1050 | 979 | 22 | 21 | <20 | 39 |  |  |  |  |  |  |
| CN(c1ccc(NC(=O)Nc2ccc(OC(F)(F)F)cc2)cc1)c1ccnc(Nc2ccc(F)c(S(N)(=O)=O)c2)n1 [Compound 18, 2-Fluoro-5-((4-(methyl(4-(3-(4-(trifluoromethoxy)phenyl)ureido)phenyl)amino)pyrimidin-2-yl)amino)benzenesulfonamide] | 59.4 | 91.7 | 27 | 29 | 94 | 93 |  |  |  |  |  |  |
| Cc1ccc(Nc2nccc(N(C)c3ccc(NC(=O)Nc4ccc(OC(F)(F)F)cc4)cc3)n2)cc1C(=O)N(C)C [Compound 19, N,N,2-trimethyl-5-((4-(methyl(4-(3-(4-(trifluoromethoxy)phenyl)ureido)phenyl)amino)pyrimidin-2-yl)amino)benzamide] | 85.5 | 114 | 28 | 30 | 26 | 70 |  |  |  |  |  |  |
| Cc1cc(OC(F)(F)F)ccc1NC(=O)Nc1ccc(N(C)c2ccnc(Nc3cccc(S(N)(=O)=O)c3)n2)cc1 [Compound 20, 3-((4-(Methyl(4-(3-(2-methyl-4-(trifluoromethoxy)phenyl)ureido)phenyl)-amino)pyrimidin-2-yl)amino) benzenesulfonamide] | 109 | 143 |  |  |  |  |  |  | 24 | 29 | 33 | 80 |
| Cc1ccc(Nc2nccc(N(C)c3ccc(NC(=O)Nc4ccc(OC(F)(F)F)cc4)cc3)n2)cc1S(N)(=O)=O [Compound 21, 2-Methyl-5-((4-(methyl(4-(3-(4-(trifluoromethoxy)phenyl)ureido)phenyl)amino)pyrimidin-2-yl)amino) benzenesulfonamide] | 58.4 | 72.7 | <20 | <20 | 51 | 79 |  |  |  |  |  |  |
| CN(c1ccc(NC(=O)C(C)(C)c2ccc(OC(F)(F)F)cc2)cc1)c1ccnc(Nc2cccc(S(N)(=O)=O)c2)n1 [Compound 22, 2-methyl-N-(4-(methyl(2-((3-sulfamoylphenyl)amino)pyrimidin-4-yl)amino)phenyl)-2-(4-(trifluoromethoxy)phenyl)propanamide] | 204 |  | <20 | <20 | 35 | 80 |  |  |  |  |  |  |
